Where two headings read alike, the source gives them in different places.
Assays:
Type in all cases: cell-based, human
H2 and S1 cells = experiment: Paired MTT viability assay, average of H2 and S1 cells (1 and 10 uM); parameters: H2&S1 ave MTT 1uM / H2&S1 ave MTT 10uM: unit not given here; details: for viability at 1 µM / viability at 10 µM: Homo sapiens
Source text: (§1) Supplement mmc2.xlsx, sheet "43 annotated compounds"

ATXN2-luc [1] = experiment: MSSR pilot screen: ATXN2-luc luciferase assay (Bright-Glo) in H2 cells, single 10 μM dose; details: for SD from mean (ATXN2-luc, Z-score): H2 cells, single dose (title: 10 μM compound), overnight; for ¦Score/1SD¦: absolute score divided by 1SD (0.891 or 0.9)
ATXN2-luc [2] = experiment: MSSR hit retest: ATXN2-luc luciferase assay, average of H2 and S1 cells (1 and 10 uM); parameters: H2&S1 ave luc 1uM / H2&S1 ave luc 10uM: scale not given here; details: for activity at 1 µM / activity at 10 µM / activity: Homo sapiens; for activity at 1 µM: read-out: H2&S1 ave luc 1uM; for activity at 10 µM / H2&S1 ave luc 10uM: head line r3 10uM; for activity at 10 µM / activity: read-out: H2&S1 ave luc 10uM; for H2&S1 ave luc 10uM: head line r4 20 uM compound
Source text: as §1

ATXN2-luc [3] = experiment: MSSR hit retest / multiconcentration testing: ATXN2-luc luciferase assay in H2 cells (1 and 10 μM); details: for H2&S1 ave luc 1uM: 1 uM compound; for H2&S1 ave luc 10uM: 10 uM compound
ATXN2-luc [4] = experiment: Secondary assays: ATXN2-luc in S2 and H2 cells, 12 doses, Bright-Glo; details: summary data
Description: The values for H2 and S2 were used as replicates to calculate IC50s and to assess cell viability.
(§2) Compounds were plated at 2× concentrations in phenol red–free DMEM in 25 μl in 384-well plates with each compound dose plated in triplicate. An equal volume of S2, H2, or SC cells (24,000 cells/well) suspended in phenol red–free DMEM with 10% fetal bovine serum and 1× penicillin/streptomycin were added. Cells were grown 24 h and then assayed first by using the CellTiter-Fluor reagent (20 μl) followed by the addition of Bright-Glo (65 μl) luciferase assay, using a multimode plate reader (Beckman; DT880). Values were reported as the mean ± SD with n = 3. IC50s were determined by the Hill coefficient method using an online tool (https://www.aatbio.com/tools/ic50-calculator).

CMV-luc = experiment: Secondary assays: CMV-luc in SC cells, Bright-Glo; details: minimum CMV-luc signal in SC cells over 12 doses; summary data
Description: as §2

[5] = 1 uM compound, read-out: H2&S1 ave MTT 1uM
[6] = 10 uM compound, read-out: H2&S1 ave MTT 10uM
[7] = pilot screen, H2 cells expressing ATXN2-luc, single dose printed as 10 μM compound
[8] = 1 uM compound, average of H2 and S1 cells
[9] = luciferase assay, average of H2 and S1 cells (both ATXN2-luc), rescreen from plated libraries
[10] = pilot screen at 10 µM compound, H2 cells expressing ATXN2-luc
[11] = luciferase, average of H2 and S1 cells expressing ATXN2-luc, rescreen
[12] = read-out: H2&S1 ave MTT 1uM, 1 uM compound
[13] = read-out: H2&S1 ave MTT 10uM, 10 uM compound

Compound: CC1=CC(=O)c2ccccc2C1=O [Menadione]
- viability at 1 µM (H2 and S1 cells; [5]): 153%
- viability at 10 µM (H2 and S1 cells; [6]): 103%
- SD from mean (ATXN2-luc, Z-score) (ATXN2-luc [1]): -3.434 SD
- SD from mean (pilot screen) (ATXN2-luc [1]; pilot screen): -3.434 SD
- SD from mean (pilot screen) (ATXN2-luc [1]; [7]): -3.434
- ¦Score/1SD¦ (ATXN2-luc [1]; pilot screen): 3.85
- activity at 1 µM (ATXN2-luc [2]; [8]): 115%
- activity at 10 µM (ATXN2-luc [2]; average of H2 and S1 cells): 35%
- H2&S1 ave luc 1uM (ATXN2-luc [3]; [9]): 115

Compound: Cyanocobalamin
- H2&S1 ave MTT 1uM (H2 and S1 cells; 1 uM compound): 151.543
- H2&S1 ave MTT 10uM (H2 and S1 cells; 10 uM compound): 134.855
- SD from mean (ATXN2-luc, Z-score) (ATXN2-luc [1]): -2.681 SD
- SD from mean (pilot screen) (ATXN2-luc [1]; pilot screen): -2.681 SD
- SD from mean (pilot screen) (ATXN2-luc [1]; [7]): -2.681
- ¦Score/1SD¦ (ATXN2-luc [1]; pilot screen): 3.01
- H2&S1 ave luc 1uM (ATXN2-luc [2]; [8]): 110
- H2&S1 ave luc 10uM (ATXN2-luc [2]; average of H2 and S1 cells): 140
- H2&S1 ave luc 1uM (ATXN2-luc [3]; [9]): 110
- H2&S1 ave luc 10uM (ATXN2-luc [3]; [9]): 140

Compound: O=c1[nH]c(=O)n([C@H]2C[C@H](O)[C@@H](CO)O2)cc1C(F)(F)F [Trifluridine]
- viability at 1 µM (H2 and S1 cells; [5]): 80.3%
- viability at 10 µM (H2 and S1 cells; [6]): 53%
- SD from mean (ATXN2-luc, Z-score) (ATXN2-luc [1]): -5.158 SD
- SD from mean (pilot screen) (ATXN2-luc [1]; pilot screen): -5.158 SD
- SD from mean (pilot screen) (ATXN2-luc [1]; [10]): -5.158
- ¦Score/1SD¦ (ATXN2-luc [1]; pilot screen): 5.79
- activity at 1 µM (ATXN2-luc [2]; [8]): 102%
- activity at 10 µM (ATXN2-luc [2]; average of H2 and S1 cells): 71%
- H2&S1 ave luc 1uM (ATXN2-luc [3]; [11]): 102

Compound: C/C1=C2/[N-][C@H]([C@H](CC(N)=O)[C@@]2(C)CCC(=O)NC[C@@H](C)OP(=O)([O-])O[C@H]2[C@@H](O)[C@@H](n3cnc4cc(C)c(C)cc43)O[C@@H]2CO)[C@]2(C)N=C(/C(C)=C3N=C(/C=C4N=C1[C@@H](CCC(N)=O)C\4(C)C)[C@@H](CCC(N)=O)[C@]\3(C)CC(N)=O)[C@@H](CCC(N)=O)[C@]2(C)CC(N)=O.[Co] [COBALAMINE]
- H2&S1 ave MTT 1uM (H2 and S1 cells; 1 uM compound): 115.867
- H2&S1 ave MTT 10uM (H2 and S1 cells; 10 uM compound): 108.02
- SD from mean (ATXN2-luc, Z-score) (ATXN2-luc [1]): -5.111 SD
- SD from mean (pilot screen) (ATXN2-luc [1]; pilot screen): -5.111 SD
- SD from mean (pilot screen) (ATXN2-luc [1]; [10]): -5.111
- ¦Score/1SD¦ (ATXN2-luc [1]; pilot screen): 5.68
- H2&S1 ave luc 1uM (ATXN2-luc [2]; [8]): 126
- H2&S1 ave luc 10uM (ATXN2-luc [2]; average of H2 and S1 cells): 109
- H2&S1 ave luc 1uM (ATXN2-luc [3]; [11]): 126
- H2&S1 ave luc 10uM (ATXN2-luc [3]; [11]): 109

Compound: CCCCCCCCCOc1ccc2[nH]cc(CCN)c2c1 [5-Nonyloxytryptamine]
- viability at 1 µM (H2 and S1 cells; [12]): 114%
- viability at 10 µM (H2 and S1 cells; [13]): 23.7%
- SD from mean (ATXN2-luc, Z-score) (ATXN2-luc [1]): -3.607 SD
- SD from mean (pilot screen) (ATXN2-luc [1]; pilot screen): -3.607 SD
- SD from mean (pilot screen) (ATXN2-luc [1]; [7]): -3.607
- ¦Score/1SD¦ (ATXN2-luc [1]; pilot screen): 4.01
- activity at 1 µM (ATXN2-luc [2]): 111%
- activity (ATXN2-luc [2]): 4.61%
- H2&S1 ave luc 1uM (ATXN2-luc [3]; [9]): 111

Compound: Nc1ccc(-c2ccc3ncc4ccc(=O)n(-c5cccc(C(F)(F)F)c5)c4c3c2)cn1 [NCGC00263216-02, torin 2]
- IC50 (ATXN2-luc [4]; ATXN2-luc luciferase assays in H2 and S2 cells, 12 doses plus a zero dose, read-out: Mean IC50): 0.257 µM
- min ATXN2-luc (%) (ATXN2-luc [4]; minimum ATXN2-luc signal over 12 doses, H2 and S2 cells): 25.4183%
- min SC luc (%) (CMV-luc): 128.375%

Compound: CC(=O)O[C@H]1C[C@H](O[C@H]2[C@@H](O)C[C@H](O[C@H]3[C@@H](O)C[C@H](O[C@H]4CC[C@@]5(C)[C@H](CC[C@@H]6[C@@H]5C[C@@H](O)[C@]5(C)[C@@H](C7=CC(=O)OC7)CC[C@]65O)C4)O[C@@H]3C)O[C@@H]2C)O[C@H](C)[C@H]1O[C@@H]1O[C@H](CO)[C@@H](O)[C@H](O)[C@H]1O [LANATOSIDE C]
- viability at 1 µM (H2 and S1 cells; [12]): 35%
- viability at 10 µM (H2 and S1 cells; [13]): 35.6%
- activity at 1 µM (ATXN2-luc [2]): 39%
- activity (ATXN2-luc [2]): 15%
- H2&S1 ave luc 1uM (ATXN2-luc [3]; [11]): 39
- H2&S1 ave luc 10uM (ATXN2-luc [3]; [11]): 15

Compound: CCN(CC)CCCCCCCCOC(=O)c1cc(OC)c(OC)c(OC)c1 [TMB-8]
- H2&S1 ave MTT 1uM (H2 and S1 cells; 1 uM compound): 73.9218
- H2&S1 ave MTT 10uM (H2 and S1 cells; 10 uM compound): 52.1193
- SD from mean (ATXN2-luc, Z-score) (ATXN2-luc [1]): -5.740 SD
- SD from mean (pilot screen) (ATXN2-luc [1]; pilot screen): -5.740 SD
- SD from mean (pilot screen) (ATXN2-luc [1]; [10]): -5.740
- ¦Score/1SD¦ (ATXN2-luc [1]; pilot screen): 6.44
- H2&S1 ave luc 1uM (ATXN2-luc [2]; [8]): 66
- H2&S1 ave luc 10uM (ATXN2-luc [2]; average of H2 and S1 cells): 53
- H2&S1 ave luc 1uM (ATXN2-luc [3]; [11]): 66
- H2&S1 ave luc 10uM (ATXN2-luc [3]; [11]): 53

Reference: paper PMC9356275, “A quantitative high-throughput screen identifies compounds that lower expression of the SCA2-and ALS-associated gene ATXN2” (The Journal of Biological Chemistry, 2022)
